The values below come from ChEMBL document CHEMBL1201862, “PubChem BioAssay data set” (2004).

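All cell lines were grown in 96-well plates and treated with compound for 48 hours. The concentration for 50% growth inhibition is given as GI50.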 Activity calls are given as the source filed them. Rule as the data show it: active = GI50 up to about 1.1 µM and inactive = higher. Where a SMILES comes first, the peptide text is derived from it.

Among the test systems are DLD-1; DMS-273; KM-20L2; M19-MEL; RXF 631; SNB-78; XF498; HOP-18; BT-549.
Common to all, as to assay: NCI-60 cell line screen, 48 h

`CC(C)N1CCOC(c2ccc(O)c(O)c2)C1` (stereo not drawn): the GI50 in the assay with DLD-1, with DMS-273, in the assay on KM-20L2, in the assay with M19-MEL, with RXF 631 and with SNB-78 was > 100 µM (inactive) in each case. Moreover, the GI50 with XF498 is > 100 µM (inactive).

Regarding `CC(C)(C)[C@H]1CO[C@]2(c3ccccc3)[C@@H]3C[C@@H]3C(=O)N12`, the GI50 in the assay on DLD-1, in the assay on DMS-273, with KM-20L2, with M19-MEL and in the assay with XF498 was > 100 µM (inactive) in each case.

Consider `CC1CCCP(=O)(c2ccccc2)CCC1` (stereo not drawn), for which the GI50 with DLD-1 was > 100 µM (inactive); in the assay with DMS-273, > 100 µM (inactive); in the assay on HOP-18, 69 µM (inactive); in the assay on KM-20L2, > 100 µM (inactive); with M19-MEL, > 100 µM (inactive); in the assay with RXF 631 it was > 100 µM (inactive). Also, the GI50 in the assay with SNB-78 and in the assay with XF498 was > 100 µM (inactive) throughout.

Regarding `NC(=S)N/N=C1/C(=O)N(c2ccc(Cl)cc2Cl)C(=O)C(=O)C1c1nc2ccccc2s1` (stereo not drawn), the GI50 is > 100 µM (inactive) in the assay on DMS-273; 98.4 µM (inactive) in the assay on HOP-18; > 100 µM (inactive) with KM-20L2; > 100 µM (inactive) in the assay on M19-MEL; > 100 µM (inactive) in the assay with SNB-78; > 100 µM (inactive) with XF498.

Regarding `O=C1NC(=O)C2C1c1[nH]c3ccccc3c1C1CCCC12` (stereo not drawn), the GI50 in the assay on DLD-1 is 3.87 µM (inactive); with DMS-273 it was 0.481 µM (active); with HOP-18, 25.3 µM (inactive); in the assay with M19-MEL, 0.971 µM (active); in the assay on RXF 631, 3.44 µM (inactive); in the assay with SNB-78 it was 6.35 µM (inactive). Moreover, the GI50 in the assay on XF498 is 0.538 µM (active).

Take `COc1ccc(NC(=O)CC/C(CC(=O)C(C)(C)C)=N\NC(=O)C(=O)NN)cc1`: the GI50 in the assay with DLD-1, in the assay with DMS-273, with HOP-18, in the assay on KM-20L2, in the assay with M19-MEL and with RXF 631 was > 100 µM (inactive) throughout. The GI50 in the assay with SNB-78 was > 100 µM (inactive).

As to `N#CC1(Cc2ccccc2[N+](=O)[O-])c2ccccc2C2C(N1C(=O)c1ccccc1)C2(Cl)Cl` (stereo not drawn), the GI50 with DLD-1 was 3.6 µM (inactive); with DMS-273 it was 28.2 µM (inactive); with HOP-18 it was > 100 µM (inactive); in the assay with KM-20L2 it was 7.19 µM (inactive); in the assay with M19-MEL, > 100 µM (inactive); with SNB-78, 77.3 µM (inactive).

Consider `C[N+](C)(C)CC(=O)N/N=C(\C(=O)Nc1ccc(Cl)cc1)C1C(=O)N(c2ccccc2)N=C1N` (stereo not drawn), for which the GI50 in the assay on DLD-1, with DMS-273, in the assay on KM-20L2, with M19-MEL and with SNB-78 was > 100 µM (inactive) each time.

`Cc1nc(N)sc1C(=O)/C=C/c1ccc([N+](=O)[O-])cc1`: the GI50 with DLD-1, with DMS-273, in the assay with HOP-18, in the assay with KM-20L2, in the assay on M19-MEL and with SNB-78 was > 100 µM (inactive) each time.

For the compound `CCOC(=N)CC(=O)NC(C)c1ccccc1` (stereo not drawn), the GI50 with DLD-1, in the assay with DMS-273, in the assay on HOP-18, in the assay on KM-20L2, in the assay with M19-MEL and in the assay with RXF 631 was > 100 µM (inactive) throughout. Also, the GI50 with SNB-78 and in the assay on XF498 was > 100 µM (inactive) throughout.

Consider `Nc1ccc2ncc(NCc3ccc(F)cc3)nc2c1`, for which the GI50 in the assay on DLD-1, with DMS-273, in the assay on HOP-18, in the assay with KM-20L2, in the assay with M19-MEL and in the assay on SNB-78 was > 100 µM (inactive) in each case. In addition, the GI50 in the assay with XF498 was 19.5 µM (inactive).

On to `CN(C)/C=C/C(=CC=[N+](C)C)/C=C/N(C)C.[O-][Cl+3]([O-])([O-])[O-]`, for which the GI50 in the assay on DLD-1, in the assay on DMS-273, with RXF 631, in the assay on SNB-78 and in the assay on XF498 was > 100 µM (inactive) in each case.

As for `COc1cccc(CCn2c(N)c(C(=O)O)c3ccc([N+](=O)[O-])cc3c2=O)c1`, in the assay on BT-549, the GI50 is 25.4 µM (inactive).

As to `COC(=O)C(C(=O)Cc1ccccc1[N+](=O)[O-])C(=O)OC`, the GI50 in the assay on DLD-1, in the assay on DMS-273, in the assay on HOP-18, with KM-20L2, in the assay with M19-MEL and with RXF 631 was > 100 µM (inactive) in each case. Besides, in the assay on XF498, the GI50 was > 100 µM (inactive).

As to `Cc1c(N)c(C#N)c2n(C)c3ncccc3n2c1=O`, the GI50 in the assay on DLD-1, in the assay with DMS-273, with HOP-18, in the assay with KM-20L2, in the assay on M19-MEL and with SNB-78 was > 100 µM (inactive) each time. Besides, the GI50 with XF498 was > 100 µM (inactive).

Consider `CCOC(=O)C1(C(=O)OCC)C(C(C)(C)C)=C(C)c2ccccc21`, for which the GI50 in the assay with DLD-1 is 11.8 µM (inactive); with DMS-273, 12.1 µM (inactive); in the assay with HOP-18, 29.1 µM (inactive); in the assay on KM-20L2, 13.5 µM (inactive); with M19-MEL, 14.1 µM (inactive); with RXF 631, 13.7 µM (inactive). Moreover, in the assay with XF498, the GI50 was 12.6 µM (inactive).

As to `CC(C)C(/C=C/c1ccc(Cl)c(Cl)c1)=N\NC(=O)N/N=C(/C=C/c1ccc(Cl)c(Cl)c1)C(C)C`, the GI50 with BT-549 was > 100 µM (inactive).

With `CCOC(=O)c1c2ccc(/C=C/C(=O)OC)ccc-2c(C(=O)OCC)c1N`, the GI50 in the assay on DLD-1, in the assay with DMS-273, in the assay on HOP-18, with KM-20L2 and with M19-MEL was > 100 µM (inactive) each time.

On to `CN(C)CC1CCC(CN(C)C)C1=NO` (stereo not drawn), for which the GI50 in the assay on DLD-1, with DMS-273, with HOP-18, with KM-20L2, with M19-MEL and in the assay on SNB-78 was > 100 µM (inactive) each time.

For the compound `NC(=S)N/N=C/C(=C/Nc1ccccc1)[N+](=O)[O-]`, the GI50 in the assay with DLD-1, in the assay on KM-20L2, in the assay with M19-MEL and in the assay on XF498 was > 100 µM (inactive) each time.

On to `CSC(=Nc1nnc(-c2ccc([N+](=O)[O-])cc2)s1)SC`, for which the GI50 in the assay on BT-549 is > 77.4 µM (inactive); with DLD-1 it was 34.7 µM (inactive); with DMS-273, 41.1 µM (inactive); in the assay on HOP-18, 5.64 µM (inactive); with KM-20L2 it was > 100 µM (inactive); in the assay with M19-MEL, > 100 µM (inactive). Besides, the results for the GI50 in the assay on SNB-78 and with XF498 were 12.4 µM (inactive) and 21.6 µM (inactive), respectively.

With `CC(C)NCCCC(C)Nc1ccnc2ccc3nn(C)nc3c12` (stereo not drawn), the GI50 is 71.9 µM (inactive) with DLD-1; 41.7 µM (inactive) with DMS-273; 9.4 µM (inactive) in the assay with HOP-18; > 10 µM (inactive) with KM-20L2; 84.9 µM (inactive) in the assay on M19-MEL; 43.1 µM (inactive) in the assay with SNB-78. For the same compound, the GI50 with XF498 is > 100 µM (inactive).

Consider `COc1cc(C2C=C(c3ccccc3)Oc3cc4c(cc32)OCO4)cc(OC)c1OC` (stereo not drawn), for which the GI50 in the assay with BT-549 is 0.632 µM (active).

As to `O=C(Nc1cc(Cl)cc(Cl)c1)/C(Cc1nc2ccccc2nc1O)=N/NC(=O)c1ccncc1`, the GI50 in the assay with DLD-1, with KM-20L2, in the assay on M19-MEL, with RXF 631 and in the assay with SNB-78 was > 100 µM (inactive) throughout.

In the case of `O=C(/C=C/c1ccc(Cl)cc1)c1ccc(Cl)c(Cl)c1`, the GI50 in the assay with DLD-1 is 15 µM (inactive); with DMS-273, 40.9 µM (inactive); in the assay with KM-20L2, 41.2 µM (inactive); in the assay on M19-MEL it was 27.8 µM (inactive); in the assay with SNB-78, > 10 µM (inactive).

As for `CC1(C)OCC2(CO1)CSCCCSCC1(COC(C)(C)OC1)CSCCCSC2`, in the assay on BT-549, the GI50 was > 100 µM (inactive).

Consider `CCCCCCCC(=O)OCC1OC(n2cc(F)c(=O)[nH]c2=O)C(NC(=O)OCc2ccccc2)C(O)C1O` (stereo not drawn), for which the GI50 with DMS-273 is 40 µM (inactive); with KM-20L2, 47.1 µM (inactive); with M19-MEL it was 56.8 µM (inactive); in the assay with SNB-78, > 100 µM (inactive).

Turning to `COC1(C)Cc2c(c(C)c(O)c3c2C(=O)C=C(Cl)C3=O)O1` (stereo not drawn), the GI50 is > 100 µM (inactive) in the assay with BT-549; 15.7 µM (inactive) with DLD-1; > 64.6 µM (inactive) with DMS-273; > 100 µM (inactive) in the assay with KM-20L2; 16.4 µM (inactive) in the assay on M19-MEL; 23.6 µM (inactive) with XF498.

On to `COC(=O)[C@]12CCC(C)[C@H](C)[C@H]1C1=CCC3[C@@]4(C)CC[C@H](OC(C)=O)C(C)(C)C4CC[C@@]3(C)C1(C)C(O)C2` (stereo partly drawn), for which the GI50 in the assay on DLD-1, in the assay with DMS-273, with HOP-18, in the assay on KM-20L2, with M19-MEL and in the assay with SNB-78 was > 100 µM (inactive) in each case. Besides, in the assay on XF498, the GI50 is 27.9 µM (inactive).

On to `COc1cc2c(cn1)[nH]c1ccccc12`, for which the GI50 in the assay on DLD-1 was > 100 µM (inactive); in the assay on DMS-273, > 100 µM (inactive); with HOP-18, > 100 µM (inactive); with KM-20L2, > 100 µM (inactive); in the assay with RXF 631 it was > 100 µM (inactive); in the assay with SNB-78 it was 59.3 µM (inactive). Moreover, the GI50 with XF498 is 35.8 µM (inactive).

Regarding `CC(C)CC(NC(=O)C(Cc1ccccc1)NC(=O)C(Cc1c[nH]c2ccccc12)NC(=O)CNC(=O)C(N)Cc1ccc(O)cc1)C(=O)O` (stereo not drawn) (H-YGWFL-OH; configuration not given here), the GI50 with BT-549 is > 100 µM (inactive).

As for `C=C(C)[C@H]1C2=CC(C)=C(O2)[C@@H](O)[C@H](C(=C)C)CCC2=C[C@H]1OC2=O` [KALLOLIDE A], the GI50 with BT-549 is > 100 µM (inactive).
